Reference: patent US9023320B2, “Method of producing a composition, composition and its use” (GE Healthcare AS, priority 2004, dated 2015)

Legend:
[1] = tested on: R3230AC rat mammary adenocarcinoma; assay: Tumour imaging using hyperpolarised 13C-pyruvate as imaging agent (13C-MR imaging of tumour-bearing rats); format: in vivo
Experimental: R3230AC is a rat mammary adenocarcinoma that can be maintained in female Fischer 344 rats. To establish the animal tumour model, a frozen vial of R32030 cells containing RPMI 1640, 10% FBS and 10% DMSO was rapidly thawed in 37° C. Thereafter, the cell solution was transferred to FBS and increasing volumes of RPMI 1640 were added. Finally, the cell suspension was transferred to a 25 cm^2growth flask and put into an incubator at 37° C., 5% CO2. Growth media were changed every other day. At the day of rat infection, removal of cells was carried out either by mechanical force or by means of trypsin. Cells were washed using phosphate buffer lacking calcium and magnesium. Trypsin (0.05% trypsin in 0.02% EDTA) was added for 2-5 min. Then, 5 ml FBS was added and the cells were transferred into a beaker containing RPMI 1640 with FCS and antibiotics (100 IU/ml penicillin, 100 IU/ml streptomycin and 2.5 µg/ml amphotericin […]). The cell solution was centrifugated and the cell pellet was resuspended in 20 ml RPMI with FBS and antibiotics, centrifugation and resuspension was repeated. The cells were then aliquoted to vials containing 4×10^6 cells/ml RPMI 1640. To obtain donor tumours, female Fischer 344 rats (Charles River, 180-200 g) were anaesthetised and 0.3 ml of the cell suspension was subcutaneously injected in the inguinal region on both sides. 15 and 22 days later, pieces of tumour were prepared as described in F. A. Burgener et al., Invest Radiol 2216 (1987), 472-478; S. Saini et al., J. Magn. Reson, 129/1 (1997), 35-43). Two incisions were made on the ventral abdomen of recipient female Fischer rats. A tumour piece was inserted into each pocket and the incisions were closed. Rats were brought to imaging 12-14 days after tumour engrafting.
Weighed rats were anaesthetised using isoflurane (2-3%) and kept on a heated table to ensure a body temperature of about 37° C. A catheter was introduced into the tail vein and into the arteria carotis communis sinistra. The rats were transported to the MR machine and placed on a home-built pad that was heated to approx. 37° C. by means of circulating FC-104 Fluorinert. This liquid will not give rise to background signals in ^1H- and ^13C-MR imaging. Anaesthesia was continued by means of 1-2% isoflurane delivered via a long tube to an open-breathing system at a rate of 0.4 L/min. The arterial catheter was connected via a T-tube to a pressure recorder and a pump delivering saline (rate […]) to prevent catheter clotting. Rats were positioned in a rat MR coil (Rapid Biomedical, Germany) and imaging using a standard proton MR imaging sequence to get anatomical information and to determine the location of the tumour.
Based on the proton frequency found by the MR system the MR frequency for ^13C1-alanine was calculated according to the following equation: Frequency ^13C1-alanine=0.25144×[(system frequency proton×1.00021)−0.000397708]
The frequency calculated positioned the MR signal arising from ^13C1-alanine on resonance with ^13C1-lactate on the left and ^13C1-pyruvate resonating on the right of ^13C1-alanine. An unlocalised MR spectroscopy sequence was run to ensure that the ^13C-MR coil and the system MR frequency had been set up correctly. The ^13C-image location was positioned to cover the tumour (slice thickness 10 mm, in plane pixel size 5×5 mm^2). In the reconstruction phase, the image data was zero-filled to result in 2.5×2.5×10 mm^3 resolution. ^13C1-pyruvate in TRIS buffer (90 mM) was injected in a dose of 10 ml/kg during a period of 12 s with a minimum volume of 2 ml into the tail vein and 30 s after the start of the injection (i.e. 18 s after finishing the injection), the chemical shift ^13C-MR sequence was started. 5.4 Analysis of the MR Imaging Data
In the reconstruction phase, the matrix was zero-filled to 32×32, a mathematical operation that helps to improve the spatial resolution. […]

[2] = DNP polarisation of 13C1-pyruvic acid, solid-state 13C-NMR DNP enhancement; format: physicochemical; details: 20 mM Tris(8-carboxy-2,2,6,6-tetra(hydroxyethoxy)methyl-benzo[1,2-d:4,5-d']bis(1,3)dithiole-4-yl)methyl sodium salt; 1.2 K, 3.35 T, 93.950 GHz; from thermal equilibrium and enhanced NMR signal
Experimental: A 20 mM solution was prepared by dissolving Tris(8-carboxy-2,2,6,6-tetra(hydroxyethoxy)methyl-benzo[1,2-d:4,5-d′]-bis-(1,3)-dithiole-4-yl)methyl sodium salt in ^13C1-pyruvic acid (83.1 mg). The sample was mixed to homogeneity, placed in a sample cup and inserted in the DNP polariser. The sample was polarised under DNP conditions at 1.2 K in a 3.35 T magnetic field under irradiation with microwave (93.950 GHz). The ^13C-NMR signal from the sample was acquired using a Varian Inova-200 NMR spectrometer. The DNP enhancement was calculated from a measurement of the thermal equilibrium ^13C-NMR signal and the enhanced NMR signal. 16% ^13C polarisation was obtained.

[3] = rat, R3230AC tumours, 90 mM in TRIS, 10 ml/kg i.v. tail vein, imaging 30 s after start of injection

Row | SMILES | overall rate of success ([1]; discrimination of tumour and healthy tissue, 26 tumours in 17 rats) | pH ([1]; injected solution, mean ±SD) | average polarisation at the time of injection ([1]; mean ±SD, solution in TRIS buffer injected into rats) | metabolic contrast in the tumour area, lactate signal [1, 3] | metabolic contrast in the tumour area, lactate signal, alanine corrected [1, 3] | metabolic contrast in the tumour area, lactate signal, pyruvate corrected [1, 3] | 13C polarisation [2]
1 | CC(=O)[13C](=O)[O-].[Na+] [^13C1-pyruvate, sodium ^13C1-pyruvate] | 100% | 8.08±0.14 | 21.2±2.9% | 24 out of 26 | 26 out of 26 | 26 out of 26 | 
2 | CC(=O)[13C](=O)O [^13C1-pyruvic acid] |  |  |  |  |  |  | 16%
